Here are results for one compound from US20170049739A1, “PROSTACYCLIN COMPOUNDS, COMPOSITIONS AND METHODS OF USE THEREOF” (INSMED INCORPORATED, priority 2013, published 2017).

Data set [1] can be described thus: Treprostinil alkyl ester conversion to treprostinil in rat lung tissue homogenate. The class given is in vitro ADME. Conditions: 37° C., 200 nM, 10 mg/mL of protein, 4 hours. How it is done: (§1) Treprostinil alkyl ester conversion to treprostinil was also measured in the presence of rat, dog and monkey lung tissue homogenate at 37° C. Mere, data were calculated based on fit of exponential increase to the maximum (experiments performed in duplicate). The results of this study are provided below in Table 2A and FIG. 37. […] Both FIG. 37 experiments (left and right graphs) were performed in duplicate and the lines represent nonlinear exponential regression assuming 1 phase decay.

Data set [2] is described as follows: Treprostinil alkyl ester conversion to treprostinil in dog lung tissue homogenate. The class given is in vitro ADME. To be noted: 37° C., 200 nM, 10 mg/mL of protein, 4 hours. How it is done:
as §1

Data set [3] can be described thus: Treprostinil alkyl ester conversion to treprostinil in monkey lung tissue homogenate. To be noted: 37° C., 200 nM, 10 mg/mL of protein, 4 hours. The class given is in vitro ADME. As for the experimental part:
as §1

The next data set has as its system CHO-K1 cells. Nature of the data set: CHO-K1 cell proliferation assay. To be noted: unformulated alkyl esters, 0.195 μM-25 μM, 48 hour incubation. As for the experimental part:
CHG-K1 cells were harvested when the cell monolayer was 50-90% confluent (use passage 4-11). Media was aspirated out of the flask, and cells were rinsed with 2 mL of F12 media. Next, 1 mL of pre-warmed (37° C.) 0.25%o trypsin-EDTA (Life Technologies, Cat#: 25300054) was added, and cells were dislodged from the flask by tapping it on the side. Complete growth media (F12 (Life Technologies, Cat #: 31765092) +10%FBS (Hyclone, Cat #: SH30071.03)+1× Pen-Strep (Life Technologies, cat #15140-122) was then added at a volume of 10 mL. Cells were eentrifuged at 250×g for 5 minutes at room temperature, and the media was aspirated. The cell pellet was resuspended in 10 ml. complete growth media. Cell number was determined using a hemacytometer. Ceils were then seeded at 2000 cells per well of a 96-well plate in 100 μL of complete growth media. The plate was incubated overnight at 37° C. and 5% CO2 in a water-jacketed incubator.
The next day, 80 μL of fresh complete media was added to each well, and CHO—K1 cells were challenged with treprostinil compound and composition treatments. The working solutions were prepared at 10× concentration, and following 2 fold serial dilutions, 20 μL aliquots were added per well to arrive at a final 1× concentration. Following a 48 hour incubation at 37° C. and 5% CO2 in a water-jacketed incubator, the inhibitory effect on cell proliferation was determined. Plates were analyzed using 20 μL of Presto Blue reagent (Life Technologies, cat #: A13262) per well. The reagent was mixed, and plates were incubated for 1 hour at 37° C. and 5% CO2 in a water-jacketed incubator. Plates were read using either a CytoFluor Series 4000 (PerSeptive BioSystems) or Synergy Neo microplate reader (BioTek) with emission λ: 590 nm and excitation λ: 560 nm.
Following a 48 hour incubation period, the inhibitory effect of the treprostinil derivative compositions on cell proliferation was determined.
CHO—K1 cells were challenged with treprostinil alkyl esters, i.e., TR compounds of Formula (A), having the following R2 groups: • C2, C3, C4, C5, C6, C8, C10 or C12 straight chain alkyl, at dosages ranging from 0.098 μM to 25 μM, Following a 48 hour incubation period, the inhibitory effect on cell proliferation was determined.
Following a 72 hour incubation period, the inhibitory effect on cell proliferation was determined. Following a 48 hour incubation period, the inhibitory effect on cell proliferation was determined.
Similarly, CHG-K1 cells were challenged with the treprostinil compositions T612 (R2═C2), T613 (R2═C8) at concentrations ranging from 1.41 μM to 180 μM.

Another data set concerns NR8383 cells. The experiment in a line: NR8383 cell proliferation assay. The class given is cell-based, rat. To be noted: unformulated alkyl esters, 0.195 μM-25 μM, 72 hour incubation. As for the experimental part:
Rat alveolar NR8383 cells were harvested when the monolayer was 50-90% confluent (use passage 5-11). Because the NR8383 cells include both adherent and non-adherent cells, media was transferred to a 50 mL Falcon tube. To obtain the cells remaining in the flask, 2 mL of plain media was added, and the remaining cells were scraped out of the 75 cm^2 flask with a cell scraper and added to the 50 mL tube. […] SH30071.03) […] Technologies, cat #: 15410-122)). Cell number was determined using a hemacytometer. […] Measurements and calculations were made as described above for the CHO-K1 cells.

`CCCCCCCCCCCCOC(=O)COc1cccc2c1C[C@H]1C[C@@H](O)[C@H](CC[C@@H](O)CCCCC)[C@H]1C2` [C12-TR, dodecyl-treprostinil]: the “Rate of treprostinil alkyl ester conversion” value was 1.1 nmOL/h * g of protein in data set [1], 2.2 nmOL/h * g of protein in data set [2] and 0.6 nmOL/h * g of protein in data set [3]. Besides, the “Effect on cell proliferation: concentration with detectable inhibition” value in the data set on CHO-K1 cells is given as “No detectable cell inhibition”. Also, the “Effect on cell proliferation” value with NR8383 cells is “No detectable cell inhibition”.
